According to patent US8367873B2, “Phenyl-substituted bicyclooctane-1,3-dione derivatives” (Bayer Cropscience AG, priority 2008, dated 2013):

Columns and labels:
Assay type in all cases: in vivo
Alopecurus myosuroides [1] = test: Herbicidal pre-emergence action; conditions: pre-emergence method, 80 g/ha, greenhouse, visual assessment vs untreated controls
How it was run: (§1)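 Visual percent damage score (100% = dead plants, 0% = as untreated control) taken three weeks after pre-emergence treatment. Compounds were wettable powders sprayed onto covering soil over seeds in sandy loam, 600 l/ha water with 0.2% wetting agent, several application amounts; pots kept in greenhouse.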

Echinocloa crus-galli [2] = test: Herbicidal pre-emergence action; conditions: pre-emergence method, 80 g/ha, greenhouse, visual assessment vs untreated controls
How it was run: as §1

Lolium multiflorum [3] = test: Herbicidal pre-emergence action; conditions: pre-emergence method, 80 g/ha, greenhouse, visual assessment vs untreated controls
How it was run: as §1

Setaria viridis [4] = test: Herbicidal pre-emergence action; conditions: pre-emergence method, 80 g/ha, greenhouse, visual assessment vs untreated controls
How it was run: as §1

Alopecurus myosuroides [5] = test: Herbicidal post-emergence action; conditions: post-emergence method; for herbicidal effect against ALOMY (Alopecurus myosuroides): 80 g/ha
How it was run: (§2)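 Percent herbicidal effect (0% like control, 100% plants dead) was rated by eye roughly three weeks post-treatment. Treatment was a post-emergence spray of wettable-powder formulations at different doses, 600 l/ha water with 0.2% wetter, onto one-leaf-stage weeds and crops grown in greenhouse pots.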

Echinocloa crus-galli [6] = test: Herbicidal post-emergence action; conditions: post-emergence method; for herbicidal effect against ECHCG (Echinochloa crus-galli): 80 g/ha
How it was run: as §2

Lolium multiflorum [7] = test: Herbicidal post-emergence action; conditions: post-emergence method; for herbicidal effect against LOLMU (Lolium multiflorum): 80 g/ha
How it was run: as §2

Setaria viridis [8] = test: Herbicidal post-emergence action; conditions: post-emergence method; for herbicidal effect against SETVI (Setaria viridis): 80 g/ha
How it was run: as §2

cereals = test: Container trials with cereals in the greenhouse, use of safeners (Mefenpyr 1 day prior to herbicide application)
Method: Seeds of monocotylidonous and dicotylidonous weed and crop plants are placed in sandy loam in wood fibre pots, covered with soil and cultivated in a greenhouse under good growth conditions. Two to three weeks after sowing, the test plants are treated at the one-leaf stage. The test compounds, formulated as wettable powders (WP), are then with a water application rate of 600 l/ha (converted), with 0.2% of wetting agent added, sprayed onto the green parts of the plants in different amounts. After the test plants have been kept in the greenhouse under optimum growth conditions for about three weeks, the effect of the preparations is assessed visually in comparison to untreated controls (herbicidal effect in percent: 100% effect=the plants have died, 0% effect=like control plants).
If it is to be additionally tested as to whether safeners can improve the plant compatibility of test substances in the case of crop plants, the following options are used for applying the safeners: • Seeds of the crop plants are, before sowing, dressed with safener substance (the amount of safener stated in percent, based on the weight of the seed) • Before the application of the test substances, the crop plants are sprayed with the safener at a certain application rate per hectare (usually one day before the application of the test substances) • The safener is applied together with the test substance as a tank mix (the amount of safener stated in g/ha or as a ratio, based on the herbicide).
Container Trials with Cereals in the Greenhouse

[9] = system: monocotylidonous and dicotylidonous weed and crop plants; test: Herbicidal pre-emergence action (other test plants); conditions: pre-emergence method, 80 g/ha, greenhouse, visual assessment vs untreated controls
How it was run: as §1

[10] = system: monocotylidonous and dicotylidonous weed and crop plants; test: Herbicidal post-emergence action (other test plants); conditions: post-emergence method; for herbicidal effect against AVEFA (Avena fatua): 80 g/ha
How it was run: as §2

[11] = 10 days after application, 12.5 g of a.i./ha
[12] = 10 days after application, 25 g of a.i./ha
[13] = 10 days after application, 50 g of a.i./ha
[14] = 28 days after application, 25 g of a.i./ha
[15] = 28 days after application, 50 g of a.i./ha
[16] = 28 days after application, 100 g of a.i./ha
[17] = 28 days after application, 12.5 g of a.i./ha

## CCc1cc(C)cc(CC)c1C1=C(O)C2CC3(CC2C1=O)OCC(C)O3 (mixture of isomers) [I-a-10]
Alopecurus myosuroides [1]
  herbicidal effect ALOMY: 70%
Echinocloa crus-galli [2]
  herbicidal effect ECHCG: 80%
Lolium multiflorum [3]
  herbicidal effect LOLMU: 100%
Setaria viridis [4]
  herbicidal effect SETVI: 60%
Alopecurus myosuroides [5]
  herbicidal effect against ALOMY (Alopecurus myosuroides): 90%
Echinocloa crus-galli [6]
  herbicidal effect against ECHCG (Echinochloa crus-galli): 100%
Lolium multiflorum [7]
  herbicidal effect against LOLMU (Lolium multiflorum): 100%
Setaria viridis [8]
  herbicidal effect against SETVI (Setaria viridis): 90%
cereals; [11]
  Summer wheat observed (%): 30%
cereals; [12]
  Summer wheat observed (%): 50%
cereals; [13]
  Summer wheat observed (%): 60%
[9]
  herbicidal effect AVEFA: 50%
[10]
  herbicidal effect against AVEFA (Avena fatua): 80%

## CCOC(=O)OC1=C(c2c(CC)cc(C)cc2CC)C(=O)[C@@H]2CC3(C[C@H]12)OCCCCO3 (relative stereo) [I-c-9]
Alopecurus myosuroides [1]
  herbicidal effect ALOMY: 100%
Echinocloa crus-galli [2]
  herbicidal effect ECHCG: 100%
Lolium multiflorum [3]
  herbicidal effect LOLMU: 100%
Setaria viridis [4]
  herbicidal effect SETVI: 70%
Alopecurus myosuroides [5]
  herbicidal effect against ALOMY (Alopecurus myosuroides): 90%
Echinocloa crus-galli [6]
  herbicidal effect against ECHCG (Echinochloa crus-galli): 100%
Lolium multiflorum [7]
  herbicidal effect against LOLMU (Lolium multiflorum): 100%
Setaria viridis [8]
  herbicidal effect against SETVI (Setaria viridis): 90%
cereals; [14]
  Summer wheat observed (%): 30%
cereals; [15]
  Summer wheat observed (%): 40%
cereals; [16]
  Summer wheat observed (%): 50%
[9]
  herbicidal effect AVEFA: 70%
[10]
  herbicidal effect against AVEFA (Avena fatua): 80%

## CCOC(=O)OC1=C(c2c(CC)cc(C)cc2CC)C(=O)[C@@H]2CC3(C[C@H]12)OCCO3 (relative stereo) [I-c-7]
Alopecurus myosuroides [1]
  herbicidal effect ALOMY: 100%
Echinocloa crus-galli [2]
  herbicidal effect ECHCG: 100%
Lolium multiflorum [3]
  herbicidal effect LOLMU: 90%
Setaria viridis [4]
  herbicidal effect SETVI: 70%
Alopecurus myosuroides [5]
  herbicidal effect against ALOMY (Alopecurus myosuroides): 90%
Echinocloa crus-galli [6]
  herbicidal effect against ECHCG (Echinochloa crus-galli): 100%
Lolium multiflorum [7]
  herbicidal effect against LOLMU (Lolium multiflorum): 100%
Setaria viridis [8]
  herbicidal effect against SETVI (Setaria viridis): 80%
cereals; [11]
  Summer wheat observed (%): 40%
cereals; [12]
  Summer wheat observed (%): 50%
cereals; [13]
  Summer wheat observed (%): 60%
cereals; [17]
  Summer wheat observed (%): 10%
cereals; [14]
  Summer wheat observed (%): 30%
cereals; [15]
  Summer wheat observed (%): 30%
cereals; [16]
  Summer wheat observed (%): 30%
[9]
  herbicidal effect AVEFA: 70%
[10]
  herbicidal effect against AVEFA (Avena fatua): 70%

## CCc1cc(C)cc(CC)c1C1=C(O)[C@H]2CC3(C[C@H]2C1=O)OCCCCO3 (relative stereo) [I-a-13]
Alopecurus myosuroides [1]
  herbicidal effect ALOMY: 90%
Echinocloa crus-galli [2]
  herbicidal effect ECHCG: 100%
Lolium multiflorum [3]
  herbicidal effect LOLMU: 100%
Setaria viridis [4]
  herbicidal effect SETVI: 90%
Alopecurus myosuroides [5]
  herbicidal effect against ALOMY (Alopecurus myosuroides): 90%
Echinocloa crus-galli [6]
  herbicidal effect against ECHCG (Echinochloa crus-galli): 100%
Lolium multiflorum [7]
  herbicidal effect against LOLMU (Lolium multiflorum): 100%
Setaria viridis [8]
  herbicidal effect against SETVI (Setaria viridis): 90%
cereals; [11]
  Summer wheat observed (%): 40%
cereals; [12]
  Summer wheat observed (%): 50%
cereals; [13]
  Summer wheat observed (%): 60%
[9]
  herbicidal effect AVEFA: 80%
[10]
  herbicidal effect against AVEFA (Avena fatua): 90%

## CCc1cc(C)cc(CC)c1C1=C(O)[C@H]2C[C@]3(COC(C)(C)O3)C[C@H]2C1=O [I-a-2]
Alopecurus myosuroides [1]
  herbicidal effect ALOMY: 90%
Echinocloa crus-galli [2]
  herbicidal effect ECHCG: 90%
Lolium multiflorum [3]
  herbicidal effect LOLMU: 100%
Setaria viridis [4]
  herbicidal effect SETVI: 50%
Alopecurus myosuroides [5]; Alopecurus myosuroides, 504 h, read-out: herbicidal effect against ALOMY (Alopecurus myosuroides)
  pest or weed control at 80 g/ha: 100%
Echinocloa crus-galli [6]; Echinochloa crus-galli, 504 h, read-out: herbicidal effect against ECHCG (Echinochloa crus-galli)
  pest or weed control at 80 g/ha: 100%
Lolium multiflorum [7]; Lolium multiflorum, 504 h, read-out: herbicidal effect against LOLMU (Lolium multiflorum)
  pest or weed control at 80 g/ha: 100%
Setaria viridis [8]; Setaria viridis, 504 h, read-out: herbicidal effect against SETVI (Setaria viridis)
  pest or weed control at 80 g/ha: 90%
cereals; [17]
  Summer wheat observed (%): 40%
cereals; [14]
  Summer wheat observed (%): 50%
cereals; [15]
  Summer wheat observed (%): 60%
[9]
  herbicidal effect AVEFA: 50%
[10]; 504 h, Avena fatua, read-out: herbicidal effect against AVEFA (Avena fatua)
  pest or weed control at 80 g/ha: 70%

## CCc1cc(C)cc(CC)c1C1=C(O)[C@H]2CC3(C[C@H]2C1=O)OCC=CCO3 (relative stereo) [I-a-14]
Alopecurus myosuroides [1]
  herbicidal effect ALOMY: 100%
Echinocloa crus-galli [2]
  herbicidal effect ECHCG: 100%
Lolium multiflorum [3]
  herbicidal effect LOLMU: 100%
Setaria viridis [4]
  herbicidal effect SETVI: 90%
Alopecurus myosuroides [5]
  herbicidal effect against ALOMY (Alopecurus myosuroides): 90%
Echinocloa crus-galli [6]
  herbicidal effect against ECHCG (Echinochloa crus-galli): 100%
Lolium multiflorum [7]
  herbicidal effect against LOLMU (Lolium multiflorum): 100%
Setaria viridis [8]
  herbicidal effect against SETVI (Setaria viridis): 100%
cereals; [17]
  Summer barley observed (%): 5%
  Summer wheat observed (%): 10%
cereals; [14]
  Summer barley observed (%): 8%
  Summer wheat observed (%): 30%
cereals; [15]
  Summer barley observed (%): 10%
  Summer wheat observed (%): 30%
cereals; [16]
  Summer barley observed (%): 20%
  Summer wheat observed (%): 70%
cereals; [11]
  Summer wheat observed (%): 50%
cereals; [12]
  Summer wheat observed (%): 60%
cereals; [13]
  Summer wheat observed (%): 60%
[9]
  herbicidal effect AVEFA: 80%
[10]
  herbicidal effect against AVEFA (Avena fatua): 90%

## CCc1cc(C)cc(CC)c1C1=C([O-])C2CC3(CC2C1=O)OC(C)CC(C)O3.[Na+] (mixture of isomers) [I-f-19]
Alopecurus myosuroides [1]
  herbicidal effect ALOMY: 100%
Echinocloa crus-galli [2]
  herbicidal effect ECHCG: 100%
Lolium multiflorum [3]
  herbicidal effect LOLMU: 100%
Setaria viridis [4]
  herbicidal effect SETVI: 100%
Alopecurus myosuroides [5]
  herbicidal effect against ALOMY (Alopecurus myosuroides): 100%
Echinocloa crus-galli [6]
  herbicidal effect against ECHCG (Echinochloa crus-galli): 100%
Lolium multiflorum [7]
  herbicidal effect against LOLMU (Lolium multiflorum): 100%
Setaria viridis [8]
  herbicidal effect against SETVI (Setaria viridis): 100%
cereals; [17]
  Summer barley observed (%): 10%
  Summer wheat observed (%): 20%
cereals; [14]
  Summer barley observed (%): 10%
  Summer wheat observed (%): 90%
cereals; [15]
  Summer barley observed (%): 20%
  Summer wheat observed (%): 97%
cereals; [16]
  Summer barley observed (%): 50%
  Summer wheat observed (%): 99%
[9]
  herbicidal effect AVEFA: 60%
[10]
  herbicidal effect against AVEFA (Avena fatua): 100%

## CCc1cc(C)cc(CC)c1C1=C(O)[C@H]2CC3(C[C@H]2C1=O)OCC(C)CO3 (relative stereo) [I-a-25]
Alopecurus myosuroides [1]
  herbicidal effect ALOMY: 100%
Echinocloa crus-galli [2]
  herbicidal effect ECHCG: 90%
Lolium multiflorum [3]
  herbicidal effect LOLMU: 100%
Setaria viridis [4]
  herbicidal effect SETVI: 90%
Alopecurus myosuroides [5]
  herbicidal effect against ALOMY (Alopecurus myosuroides): 100%
Echinocloa crus-galli [6]
  herbicidal effect against ECHCG (Echinochloa crus-galli): 100%
Lolium multiflorum [7]
  herbicidal effect against LOLMU (Lolium multiflorum): 100%
Setaria viridis [8]
  herbicidal effect against SETVI (Setaria viridis): 100%
cereals; [15]
  Summer barley observed (%): 60%
  Summer wheat observed (%): 70%
cereals; [16]
  Summer barley observed (%): 85%
  Summer wheat observed (%): 85%
cereals; [17]
  Summer wheat observed (%): 10%
cereals; [14]
  Summer wheat observed (%): 30%
[9]
  herbicidal effect AVEFA: 70%
[10]
  herbicidal effect against AVEFA (Avena fatua): 100%
